Laboratory results as given in US10508088B2, “Methods using HDAC11 inhibitors” (FORMA Therapeutics, Inc., priority 2016, dated 2019).

Biological target: Full length human recombinant HDAC11 (Homo sapiens (Human), UniProt Q96DB2)
Experiment: Enzymatic HDAC11 assay, electrophoretic mobility shift
Type: biochemical
Details: substrate FAM-RHKK(tri-fluor-Ac)-NH2, read-out: HDAC11 IC50 Range
Procedure: The enzymatic HDAC11 assay was performed using electrophoretic mobility shift assay. Full length human recombinant HDAC11 protein was expressed in baculoviral system and purified by affinity chromatography. The enzymatic reactions were assembled in 384 well plates in a total volume of 25 μL in a reaction buffer composing: 100 mM HEPES, pH 7.5, 25 mM KCl, 0.1% bovine serum albumin, 0.01% Triton X-100, 1% DMSO (from compounds) 2 μM of the fluorescently labeled peptide substrate and enzyme. The enzyme was added at a final concentration of 10 nM. The peptide substrate FAM-RHKK(tri-fluor-Ac)-NH2 was used. The compounds were tested at 12 concentrations spaced by 3× dilution intervals. Negative control samples (0%-inhibition in the absence of inhibitor) and positive control samples (100%-inhibition) were assembled in replicates of four in each assay plate. The reactions were incubated at 25° C. and quenched by the addition of 45 μL of termination buffer (100 mM HEPES, pH 7.5, 0.01% Triton X-100, 0.05% SDS).
The terminated assay plates were analyzed on LabChip® 3000 microfluidic electrophoresis instrument (Perkin Elmer/Caliper Life Sciences). The fluorescence intensity of the electrophoretically separated de-acetylated product and substrate peptide was measured. Activity in each sample was determined as the product to sum ratio (PSR):P/(S+P), where P is the peak height of the product peptide and S is the peak height of the substrate peptide. Percent inhibition (Pinh) is determined using the following equation: Pinh=(PSR0%−PSRinh)/(PSR0%−PSR100%)*100,
where PSRinh is the product sum ratio in the presence of inhibitor, PSR0% is the average product sum ration in the absence of inhibitor and PSR100% is the average product sum ratio in 100%-inhibition control samples. The IC50 values of inhibitors were determined by fitting the percent inhibition curves with 4 parameter dose-response model using XLfit 4 software.

Full length human recombinant HDAC11, sequence (Q96DB2 whole entry): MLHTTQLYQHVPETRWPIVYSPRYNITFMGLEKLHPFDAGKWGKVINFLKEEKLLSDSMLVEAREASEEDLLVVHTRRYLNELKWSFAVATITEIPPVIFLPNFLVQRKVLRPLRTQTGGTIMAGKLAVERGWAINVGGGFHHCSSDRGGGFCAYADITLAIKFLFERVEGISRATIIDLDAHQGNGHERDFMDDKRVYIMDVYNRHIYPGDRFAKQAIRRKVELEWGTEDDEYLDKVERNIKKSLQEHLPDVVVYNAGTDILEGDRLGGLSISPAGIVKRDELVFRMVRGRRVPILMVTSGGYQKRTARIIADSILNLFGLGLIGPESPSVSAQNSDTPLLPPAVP

| SMILES | IC50 [µM] |
| --- | --- |
| O=C(NO)c1cccc2c1CC1(CCN(Cc3ccc(C(F)(F)F)cc3)C1)C2 (centres unmarked) [II-56, N-hydroxy-1′-(4-(trifluoromethyl)benzyl)-1,3-dihydrospiro[indene-2,3′-pyrrolidine]-4-carboxamide] | 0.5 to 1 |
| COc1ccccc1CN1CCC2(Cc3cccc(C(=O)NO)c3C2)C1=O (centres unmarked) [II-36, N-hydroxy-1′-(2-methoxybenzyl)-2′-oxo-1,3-dihydrospiro[indene-2,3′-pyrrolidine]-4-carboxamide] | > 1 |
| O=C(NO)c1cccc2c1OC1(CC2)CCN(C(=O)c2ccc(F)cc2)CC1 [II-75, 1′-(4-fluorobenzoyl)-N-hydroxyspiro[chromane-2,4′-piperidine]-8-carboxamide] | > 1 |
| O=C(NO)c1cccc2c1CC1(CC2)CCN(Cc2ccc(C(F)(F)F)c(F)c2)C1=O (centres unmarked) [II-68, 1′-(3-fluoro-4-(trifluoromethyl)benzyl)-N-hydroxy-2′-oxo-3,4-dihydro-1H-spiro[naphthalene-2,3′-pyrrolidine]-8-carboxamide] | < 0.5 |
| O=C(NO)c1cccc2c1OC1(CC2)CCN(C2CCCCC2)CC1 [II-81, 1′-cyclohexyl-N-hydroxyspiro[chromane-2,4′-piperidine]-8-carboxamide] | > 1 |
| O=C(NO)c1cccc2c1CC1(CC2)CCN(Cc2ccc(Cl)cc2)C1=O (centres unmarked) [II-69, 1′-(4-chlorobenzyl)-N-hydroxy-2′-oxo-3,4-dihydro-1H-spiro[naphthalene-2,3′-pyrrolidine]-8-carboxamide] | > 1 |
| O=C(NO)c1cccc2c1CCC1(CCN(Cc3ccc(Cl)c(C(F)(F)F)c3)C1=O)C2 (centres unmarked) [II-84, 1′-(4-chloro-3-(trifluoromethyl)benzyl)-N-hydroxy-2′-oxo-3,4-dihydro-1H-spiro[naphthalene-2,3′-pyrrolidine]-5-carboxamide] | < 0.5 |
| O=C(NO)c1cccc2c1CC1(CCN(Cc3ccc(-n4cccn4)nc3)C1=O)C2 (centres unmarked) [II-47, 1′-((6-(1H-pyrazol-1-yl)pyridin-3-yl)methyl)-N-hydroxy-2′-oxo-1,3-dihydrospiro[indene-2,3′-pyrrolidine]-4-carboxamide] | > 1 |
| O=C(NO)c1cccc2c1CC1(CCN(Cc3cccc(Cl)c3)C1=O)C2 (centres unmarked) [II-30, 1′-(3-chlorobenzyl)-N-hydroxy-2′-oxo-1,3-dihydrospiro[indene-2,3′-pyrrolidine]-4-carboxamide] | < 0.5 |
| COc1cc(CN2CCC3(Cc4cccc(C(=O)NO)c4C3)C2=O)cc(OC)c1 (centres unmarked) [II-40, 1′-(3,5-dimethoxybenzyl)-N-hydroxy-2′-oxo-1,3-dihydrospiro[indene-2,3′-pyrrolidine]-4-carboxamide] | > 1 |
| O=C(NO)c1cccc2c1CC1(CCN(Cc3c(Cl)cccc3Cl)C1=O)C2 (centres unmarked) [II-21, 1′-(2,6-dichlorobenzyl)-N-hydroxy-2′-oxo-1,3-dihydrospiro[indene-2,3′-pyrrolidine]-4-carboxamide] | 0.5 to 1 |
| O=C(NO)c1cccc2c1CC1(CCN(Cc3csc(-c4ccccc4)n3)C1=O)C2 (centres unmarked) [II-34, N-hydroxy-2′-oxo-1′-((2-phenylthiazol-4-yl)methyl)-1,3-dihydrospiro[indene-2,3′-pyrrolidine]-4-carboxamide] | > 1 |
| O=C(NO)c1cccc2c1CC1(CCN(c3ccccc3C(F)(F)F)C1=O)C2 (centres unmarked) [II-13, N-hydroxy-2′-oxo-1′-(2-(trifluoromethyl)phenyl)-1,3-dihydrospiro[indene-2,3′-pyrrolidine]-4-carboxamide] | > 1 |
| Cc1ccc(CN2CCC3(Cc4cccc(C(=O)NO)c4C3)C2=O)cc1C (centres unmarked) [II-39, 1′-(3,4-dimethylbenzyl)-N-hydroxy-2′-oxo-1,3-dihydrospiro[indene-2,3′-pyrrolidine]-4-carboxamide] | 0.5 to 1 |
| O=C(NO)c1cccc2c1CC1(CCN(Cc3ccc(C(F)(F)F)c(F)c3)C1=O)C2 (centres unmarked) [II-5, 1′-(3-fluoro-4-(trifluoromethyl)benzyl)-N-hydroxy-2′-oxo-1,3-dihydrospiro[indene-2,3′-pyrrolidine]-4-carboxamide] | < 0.5 |
| O=C(NO)c1cccc2c1OC1(CC2)CCN(c2ccc(C(F)(F)F)cn2)CC1 [II-82, N-hydroxy-1′-(5-(trifluoromethyl)pyridin-2-yl)spiro[chromane-2,4′-piperidine]-8-carboxamide] | > 1 |
| O=C(NO)c1cccc2c1CC1(CCN(Cc3cccc(Cl)c3Cl)C1=O)C2 (centres unmarked) [II-22, 1′-(2,3-dichlorobenzyl)-N-hydroxy-2′-oxo-1,3-dihydrospiro[indene-2,3′-pyrrolidine]-4-carboxamide] | < 0.5 |
| O=C(NO)c1cccc2c1CC1(CCN(Cc3ccccc3-c3ccccc3)C1=O)C2 (centres unmarked) [II-37, 1′-([1,1′-biphenyl]-2-ylmethyl)-N-hydroxy-2′-oxo-1,3-dihydrospiro[indene-2,3′-pyrrolidine]-4-carboxamide] | < 0.5 |
| O=C(NO)c1cccc2c1CC1(CCN(Cc3ccc(OC(F)(F)F)cc3)C1=O)C2 (centres unmarked) [II-27, N-hydroxy-2′-oxo-1′-(4-(trifluoromethoxy)benzyl)-1,3-dihydrospiro[indene-2,3′-pyrrolidine]-4-carboxamide] | < 0.5 |
| O=C(NO)c1cccc2c1CC1(CC2)CCN(c2ccccc2C(F)(F)F)C1=O (centres unmarked) [II-73, N-hydroxy-2′-oxo-1′-(2-(trifluoromethyl)phenyl)-3,4-dihydro-1H-spiro[naphthalene-2,3′-pyrrolidine]-8-carboxamide] | > 1 |
| O=C(NO)c1cccc2c1CC1(CCN(Cc3ccc(C(F)(F)F)cc3)C1=O)C2 (centres unmarked) [II-6, N-hydroxy-2′-oxo-1′-(4-(trifluoromethyl)benzyl)-1,3-dihydrospiro[indene-2,3′-pyrrolidine]-4-carboxamide] | < 0.5 |
| Cc1ccccc1CN1CCC2(Cc3cccc(C(=O)NO)c3C2)C1=O (centres unmarked) [II-23, N-hydroxy-1′-(2-methylbenzyl)-2′-oxo-1,3-dihydrospiro[indene-2,3′-pyrrolidine]-4-carboxamide] | > 1 |
| O=C(NO)c1cccc2c1OC1(CC2)CCN(Cc2ccc(F)cc2)CC1 [II-80, 1′-(4-fluorobenzyl)-N-hydroxyspiro[chromane-2,4′-piperidine]-8-carboxamide] | > 1 |
| O=C(NO)c1cccc2c1CCC1(CCN(c3ccccc3)CC1)O2 [II-92, N-hydroxy-1′-phenylspiro[chromane-2,4′-piperidine]-5-carboxamide] | > 1 |
| O=C(NO)c1cccc2c1CC1(CCN(C3CC3)C1=O)C2 (centres unmarked) [II-9, 1′-cyclopropyl-N-hydroxy-2′-oxo-1,3-dihydrospiro[indene-2,3′-pyrrolidine]-4-carboxamide] | > 1 |
| O=C(NO)c1cccc2c1CC1(CCN(Cc3ccc(F)cc3)C1=O)C2 (centres unmarked) [II-7, 1′-(4-fluorobenzyl)-N-hydroxy-2′-oxo-1,3-dihydrospiro[indene-2,3′-pyrrolidine]-4-carboxamide] | 0.5 to 1 |
| O=C(NO)c1cccc2c1CC1(CCN(CC3CC3)C1=O)C2 (centres unmarked) [II-55, 1′-(cyclopropylmethyl)-N-hydroxy-2′-oxo-1,3-dihydrospiro[indene-2,3′-pyrrolidine]-4-carboxamide] | > 1 |
| O=C(NO)c1cccc2c1CC1(CCN(Cc3ccccc3)C1=O)C2 (centres unmarked) [II-14, 1′-benzyl-N-hydroxy-2′-oxo-1,3-dihydrospiro[indene-2,3′-pyrrolidine]-4-carboxamide] | > 1 |
| O=C(NO)c1cccc2c1CC1(CCN(Cc3cccc(C(F)(F)F)c3)C1=O)C2 (centres unmarked) [II-31, N-hydroxy-2′-oxo-1′-(3-(trifluoromethyl)benzyl)-1,3-dihydrospiro[indene-2,3′-pyrrolidine]-4-carboxamide] | < 0.5 |
